# Data from patent publication US9790178B2, “Pyrrolidinyl urea, thiourea, guanidine and cyanoguanidine compounds as TrkA kinase inhibitors” (Array BioPharma Inc., priority 2012, dated 2017).
# How the values were obtained:
# Test in all cases: KinaseProfiler off-target kinase profiling
# Type in all cases: biochemical
# Conditions in all cases: 10 μM, ATP near Km
# MKK6 = molecular target: T1, MKK6 (Homo sapiens, UniProt P52564)
# T1 construct: purchased Millipore, Inc. (KinaseProfiler service)
# Method: (§1) A representative compound of the invention (Example 20) was tested for off-target kinase activity at a concentration of 10 μM by Millipore, Inc. in their KinaseProfiler™ service against all the kinases available in their full kinase panel. The compound was run in duplicate at a concentration of ATP near the Km for each individual kinase according to Millipore's specifications. The results are shown in Table B. Data are reported as percent of control (POC) and are the average of the two replicates.
# FGFR1 = molecular target: T2, FGFR1 (Homo sapiens, UniProt P11362)
# T2 construct: purchased Millipore, Inc. (KinaseProfiler service)
# Method: as §1
# PRKG1alpha = molecular target: T3, PRKG1alpha (Homo sapiens, UniProt Q13976)
# T3 construct: purchased Millipore (KinaseProfiler service)
# Method: as §1
# ERK1 = molecular target: T4, ERK1 (Homo sapiens, UniProt P27361)
# T4 construct: purchased Millipore, Inc. (KinaseProfiler service)
# Method: as §1
# CDK9/cyclinT1 = molecular target: T5, CDK9/cyclinT1 (Homo sapiens, UniProt P50750)
# T5 construct: purchased Millipore, Inc. (KinaseProfiler service)
# Method: as §1
# IGF-1R Activated = molecular target: T6, IGF-1R Activated (Homo sapiens, UniProt P08069)
# T6 construct: purchased Millipore, Inc. (KinaseProfiler service)
# Method: as §1
# DMPK = molecular target: T7, DMPK (Homo sapiens, UniProt Q09013)
# T7 construct: purchased Millipore, Inc. (KinaseProfiler service)
# Method: as §1
# BrSK2 = molecular target: T8, BrSK2 (Homo sapiens, UniProt Q8IWQ3)
# T8 construct: purchased Millipore, Inc. (KinaseProfiler service)
# Method: as §1
# MST2 = molecular target: T9, MST2 (Homo sapiens, UniProt Q13188)
# T9 construct: purchased Millipore, Inc. (KinaseProfiler service)
# Method: as §1
# Rsk2 = molecular target: T10, Rsk2 (Homo sapiens, UniProt P51812)
# T10 construct: purchased Millipore (KinaseProfiler service)
# Method: as §1
# CK1_y = test system: CK1_y
# Method: as §1
# p38beta = molecular target: T11, p38beta (Homo sapiens, UniProt Q15759)
# T11 construct: purchased Millipore, Inc. (KinaseProfiler service)
# Method: as §1
# Pyk2 = molecular target: T12, Pyk2 (Homo sapiens, UniProt Q14289)
# T12 construct: purchased Millipore (KinaseProfiler service)
# Method: as §1
# FGFR3 = molecular target: T13, FGFR3 (Homo sapiens, UniProt P22607)
# T13 construct: purchased Millipore, Inc. (KinaseProfiler service)
# Method: as §1
# NEK6 = molecular target: T14, NEK6 (Homo sapiens, UniProt Q9HC98)
# T14 construct: purchased Millipore, Inc. (KinaseProfiler service)
# Method: as §1
# SGK1 = molecular target: T15, SGK1 (Homo sapiens, UniProt O00141, S422D)
# T15 construct: purchased Millipore, Inc. (KinaseProfiler service)
# Method: as §1
# DAPK1 = molecular target: T16, DAPK1 (Homo sapiens, UniProt P53355)
# T16 construct: purchased Millipore, Inc. (KinaseProfiler service)
# Method: as §1
# p38delta = molecular target: T17, p38delta (Homo sapiens, UniProt O15264)
# T17 construct: purchased Millipore, Inc. (KinaseProfiler service)
# Method: as §1
# TNK2 = molecular target: T18, TNK2 (Homo sapiens, UniProt Q07912)
# T18 construct: purchased Millipore, Inc. (KinaseProfiler service)
# Method: as §1
# IR Activated = molecular target: T19, IR Activated (Homo sapiens, UniProt P06213)
# T19 construct: purchased Millipore, Inc. (KinaseProfiler service)
# Method: as §1
# MAPKAP-K3 = molecular target: T20, MAPKAP-K3 (Homo sapiens, UniProt Q16644)
# T20 construct: purchased Millipore, Inc. (KinaseProfiler service)
# Method: as §1
# ULK3 = molecular target: T21, ULK3 (Homo sapiens, UniProt Q6PHR2)
# T21 construct: purchased Millipore, Inc. (KinaseProfiler service)
# Method: as §1
# STK33 = molecular target: T22, STK33 (Homo sapiens, UniProt Q9BYT3)
# T22 construct: purchased Millipore, Inc. (KinaseProfiler service)
# Method: as §1
# Plk2 = molecular target: T23, Plk2 (Homo sapiens, UniProt Q9NYY3)
# T23 construct: purchased Millipore (KinaseProfiler service)
# Method: as §1
# DYRK2 = molecular target: T24, DYRK2 (Homo sapiens, UniProt Q92630)
# T24 construct: purchased Millipore, Inc. (KinaseProfiler service)
# Method: as §1
# Rsk3 = molecular target: T25, Rsk3 (Homo sapiens, UniProt Q15349)
# T25 construct: purchased Millipore (KinaseProfiler service)
# Method: as §1
# CAMK1d = molecular target: T26, CAMK1d (Homo sapiens, UniProt Q8IU85)
# T26 construct: purchased Millipore, Inc. (KinaseProfiler service)
# Method: as §1
# RIPK2 = molecular target: T27, RIPK2 (Homo sapiens, UniProt O43353)
# T27 construct: purchased Millipore (KinaseProfiler service)
# Method: as §1
# Bmx = molecular target: T28, Bmx (Homo sapiens, UniProt P51813)
# T28 construct: purchased Millipore, Inc. (KinaseProfiler service)
# Method: as §1
# CLK2 = molecular target: T29, CLK2 (Homo sapiens, UniProt P49760)
# T29 construct: purchased Millipore, Inc. (KinaseProfiler service)
# Method: as §1
# PTK5 = molecular target: T30, PTK5 (Homo sapiens, UniProt P42685)
# T30 construct: purchased Millipore (KinaseProfiler service)
# Method: as §1
# PKCgamma = molecular target: T31, PKCgamma (Homo sapiens, UniProt P05129)
# T31 construct: purchased Millipore, Inc. (KinaseProfiler service)
# Method: as §1
# ROCK-I = molecular target: T32, ROCK-I (Homo sapiens, UniProt Q13464)
# T32 construct: purchased Millipore (KinaseProfiler service)
# Method: as §1
# Lyn = molecular target: T33, Lyn (Homo sapiens, UniProt P07948)
# T33 construct: purchased Millipore, Inc. (KinaseProfiler service)
# Method: as §1
# PDGFRbeta = molecular target: T34, PDGFRbeta (Homo sapiens, UniProt P09619)
# T34 construct: purchased Millipore, Inc. (KinaseProfiler service)
# Method: as §1
# TAK1 = molecular target: T35, TAK1 (Homo sapiens, UniProt O43318)
# T35 construct: purchased Millipore, Inc. (KinaseProfiler service)
# Method: as §1
# CAMK2g = molecular target: T36, CAMK2g (Homo sapiens, UniProt Q13555)
# T36 construct: purchased Millipore, Inc. (KinaseProfiler service)
# Method: as §1
# FGFR2 = molecular target: T37, FGFR2 (Homo sapiens, UniProt P21802)
# T37 construct: purchased Millipore, Inc. (KinaseProfiler service)
# Method: as §1
# ALK4 = molecular target: T38, ALK4 (Homo sapiens, UniProt P36896)
# T38 construct: purchased Millipore, Inc. (KinaseProfiler service)
# Method: as §1
# Flt4 = molecular target: T39, Flt4 (Homo sapiens, UniProt P35916)
# T39 construct: purchased Millipore, Inc. (KinaseProfiler service)
# Method: as §1
# IRR = molecular target: T40, IRR (Homo sapiens, UniProt P14616)
# T40 construct: purchased Millipore, Inc. (KinaseProfiler service)
# Method: as §1
# T18 sequence (Q07912 whole entry): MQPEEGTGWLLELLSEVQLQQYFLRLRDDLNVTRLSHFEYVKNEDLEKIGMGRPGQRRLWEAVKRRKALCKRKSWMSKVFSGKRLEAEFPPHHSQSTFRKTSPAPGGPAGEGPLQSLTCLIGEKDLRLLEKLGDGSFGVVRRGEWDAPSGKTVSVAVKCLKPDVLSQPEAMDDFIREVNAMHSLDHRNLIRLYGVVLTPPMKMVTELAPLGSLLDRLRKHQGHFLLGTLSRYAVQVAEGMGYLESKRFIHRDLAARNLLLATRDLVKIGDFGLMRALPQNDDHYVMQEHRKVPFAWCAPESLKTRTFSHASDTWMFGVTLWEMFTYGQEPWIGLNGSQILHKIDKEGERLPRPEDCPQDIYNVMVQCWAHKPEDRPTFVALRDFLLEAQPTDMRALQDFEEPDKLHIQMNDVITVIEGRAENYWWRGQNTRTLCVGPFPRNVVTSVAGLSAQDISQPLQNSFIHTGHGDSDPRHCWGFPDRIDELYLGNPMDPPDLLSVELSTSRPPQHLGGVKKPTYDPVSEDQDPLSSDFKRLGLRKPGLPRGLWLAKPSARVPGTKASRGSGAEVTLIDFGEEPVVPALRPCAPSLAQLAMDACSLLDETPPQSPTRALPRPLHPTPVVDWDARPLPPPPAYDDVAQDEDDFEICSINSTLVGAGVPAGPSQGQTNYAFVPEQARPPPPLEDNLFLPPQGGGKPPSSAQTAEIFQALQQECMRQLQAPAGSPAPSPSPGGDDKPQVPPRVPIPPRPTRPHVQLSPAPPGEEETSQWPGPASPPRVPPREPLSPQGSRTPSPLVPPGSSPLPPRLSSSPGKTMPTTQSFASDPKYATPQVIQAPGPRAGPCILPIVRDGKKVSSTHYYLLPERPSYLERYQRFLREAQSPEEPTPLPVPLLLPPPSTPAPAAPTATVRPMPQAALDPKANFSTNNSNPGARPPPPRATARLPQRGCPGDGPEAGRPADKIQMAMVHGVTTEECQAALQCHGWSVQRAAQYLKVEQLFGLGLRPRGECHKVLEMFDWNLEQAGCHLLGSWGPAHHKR
# T28 sequence (P51813 whole entry): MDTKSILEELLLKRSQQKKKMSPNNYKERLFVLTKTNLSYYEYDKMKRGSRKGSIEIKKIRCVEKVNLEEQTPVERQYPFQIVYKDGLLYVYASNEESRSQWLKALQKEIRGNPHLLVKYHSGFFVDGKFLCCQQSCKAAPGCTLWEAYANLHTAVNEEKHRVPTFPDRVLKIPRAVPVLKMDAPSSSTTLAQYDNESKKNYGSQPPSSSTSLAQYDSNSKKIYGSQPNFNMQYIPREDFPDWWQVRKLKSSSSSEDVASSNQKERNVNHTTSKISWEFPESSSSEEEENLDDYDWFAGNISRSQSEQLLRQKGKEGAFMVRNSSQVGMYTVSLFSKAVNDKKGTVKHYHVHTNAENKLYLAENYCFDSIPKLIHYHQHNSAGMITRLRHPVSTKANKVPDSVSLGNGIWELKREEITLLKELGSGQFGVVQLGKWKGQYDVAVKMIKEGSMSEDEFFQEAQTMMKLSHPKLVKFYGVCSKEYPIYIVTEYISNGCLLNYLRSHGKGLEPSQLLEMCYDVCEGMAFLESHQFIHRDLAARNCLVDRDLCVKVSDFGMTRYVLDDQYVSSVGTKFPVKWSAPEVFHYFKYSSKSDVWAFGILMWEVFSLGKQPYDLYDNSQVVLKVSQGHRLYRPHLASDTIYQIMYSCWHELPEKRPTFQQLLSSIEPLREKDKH
# T4 sequence (P27361 whole entry): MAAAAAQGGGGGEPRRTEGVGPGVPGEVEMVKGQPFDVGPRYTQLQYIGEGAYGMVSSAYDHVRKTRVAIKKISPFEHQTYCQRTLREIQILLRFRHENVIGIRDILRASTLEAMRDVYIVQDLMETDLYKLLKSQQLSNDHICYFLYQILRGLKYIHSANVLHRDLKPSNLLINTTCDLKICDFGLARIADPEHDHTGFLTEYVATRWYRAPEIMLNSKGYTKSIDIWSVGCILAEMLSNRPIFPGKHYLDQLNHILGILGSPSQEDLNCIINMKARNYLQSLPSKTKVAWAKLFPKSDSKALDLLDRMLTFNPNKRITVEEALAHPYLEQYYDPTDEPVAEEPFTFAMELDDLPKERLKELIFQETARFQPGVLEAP
# T22 sequence (Q9BYT3 whole entry): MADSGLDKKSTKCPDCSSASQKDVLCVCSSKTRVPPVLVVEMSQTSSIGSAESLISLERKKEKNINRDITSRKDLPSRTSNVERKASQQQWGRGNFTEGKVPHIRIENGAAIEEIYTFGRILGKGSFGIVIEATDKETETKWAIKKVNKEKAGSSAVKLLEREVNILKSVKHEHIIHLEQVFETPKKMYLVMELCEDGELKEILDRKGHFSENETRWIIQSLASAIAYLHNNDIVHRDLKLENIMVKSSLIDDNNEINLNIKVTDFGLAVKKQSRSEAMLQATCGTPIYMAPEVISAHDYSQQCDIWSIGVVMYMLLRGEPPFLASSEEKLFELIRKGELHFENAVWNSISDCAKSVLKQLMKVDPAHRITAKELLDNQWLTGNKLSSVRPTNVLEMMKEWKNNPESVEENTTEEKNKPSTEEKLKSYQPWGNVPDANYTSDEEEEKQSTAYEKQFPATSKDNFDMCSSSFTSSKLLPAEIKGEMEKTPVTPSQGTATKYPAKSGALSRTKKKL
# T20 sequence (Q16644 whole entry): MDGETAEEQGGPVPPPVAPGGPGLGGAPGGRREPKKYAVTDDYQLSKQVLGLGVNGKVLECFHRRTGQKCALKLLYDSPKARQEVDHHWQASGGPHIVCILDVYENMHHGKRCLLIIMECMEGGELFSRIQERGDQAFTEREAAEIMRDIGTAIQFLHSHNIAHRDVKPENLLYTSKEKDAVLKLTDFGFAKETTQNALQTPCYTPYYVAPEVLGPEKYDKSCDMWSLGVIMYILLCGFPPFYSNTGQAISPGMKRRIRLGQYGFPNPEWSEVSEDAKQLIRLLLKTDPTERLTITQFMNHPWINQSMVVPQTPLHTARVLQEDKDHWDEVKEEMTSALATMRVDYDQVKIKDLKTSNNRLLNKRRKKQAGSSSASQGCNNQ
# T15 sequence (O00141 60-431 S422D limits assumed): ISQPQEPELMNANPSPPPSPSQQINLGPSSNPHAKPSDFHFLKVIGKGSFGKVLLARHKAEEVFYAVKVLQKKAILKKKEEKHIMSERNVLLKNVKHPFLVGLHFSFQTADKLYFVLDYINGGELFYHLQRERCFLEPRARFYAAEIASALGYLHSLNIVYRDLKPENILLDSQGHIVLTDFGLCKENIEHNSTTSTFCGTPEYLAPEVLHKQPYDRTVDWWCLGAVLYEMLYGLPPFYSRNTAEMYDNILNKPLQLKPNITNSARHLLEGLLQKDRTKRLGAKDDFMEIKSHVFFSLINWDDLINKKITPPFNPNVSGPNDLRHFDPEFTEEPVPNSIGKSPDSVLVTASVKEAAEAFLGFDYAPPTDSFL
# T6 sequence (P08069 959-1367 limits assumed): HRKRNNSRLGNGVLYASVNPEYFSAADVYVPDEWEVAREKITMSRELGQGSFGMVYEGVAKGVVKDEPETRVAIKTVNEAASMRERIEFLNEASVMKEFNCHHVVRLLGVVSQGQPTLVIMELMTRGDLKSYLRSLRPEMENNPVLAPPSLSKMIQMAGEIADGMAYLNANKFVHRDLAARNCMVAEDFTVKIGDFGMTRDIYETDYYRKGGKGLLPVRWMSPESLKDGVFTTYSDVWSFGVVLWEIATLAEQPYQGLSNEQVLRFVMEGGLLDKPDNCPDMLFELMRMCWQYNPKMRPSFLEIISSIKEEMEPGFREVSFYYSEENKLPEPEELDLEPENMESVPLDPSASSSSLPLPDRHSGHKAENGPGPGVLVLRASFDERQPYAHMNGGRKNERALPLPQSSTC
# T40 sequence (P14616 27-1297): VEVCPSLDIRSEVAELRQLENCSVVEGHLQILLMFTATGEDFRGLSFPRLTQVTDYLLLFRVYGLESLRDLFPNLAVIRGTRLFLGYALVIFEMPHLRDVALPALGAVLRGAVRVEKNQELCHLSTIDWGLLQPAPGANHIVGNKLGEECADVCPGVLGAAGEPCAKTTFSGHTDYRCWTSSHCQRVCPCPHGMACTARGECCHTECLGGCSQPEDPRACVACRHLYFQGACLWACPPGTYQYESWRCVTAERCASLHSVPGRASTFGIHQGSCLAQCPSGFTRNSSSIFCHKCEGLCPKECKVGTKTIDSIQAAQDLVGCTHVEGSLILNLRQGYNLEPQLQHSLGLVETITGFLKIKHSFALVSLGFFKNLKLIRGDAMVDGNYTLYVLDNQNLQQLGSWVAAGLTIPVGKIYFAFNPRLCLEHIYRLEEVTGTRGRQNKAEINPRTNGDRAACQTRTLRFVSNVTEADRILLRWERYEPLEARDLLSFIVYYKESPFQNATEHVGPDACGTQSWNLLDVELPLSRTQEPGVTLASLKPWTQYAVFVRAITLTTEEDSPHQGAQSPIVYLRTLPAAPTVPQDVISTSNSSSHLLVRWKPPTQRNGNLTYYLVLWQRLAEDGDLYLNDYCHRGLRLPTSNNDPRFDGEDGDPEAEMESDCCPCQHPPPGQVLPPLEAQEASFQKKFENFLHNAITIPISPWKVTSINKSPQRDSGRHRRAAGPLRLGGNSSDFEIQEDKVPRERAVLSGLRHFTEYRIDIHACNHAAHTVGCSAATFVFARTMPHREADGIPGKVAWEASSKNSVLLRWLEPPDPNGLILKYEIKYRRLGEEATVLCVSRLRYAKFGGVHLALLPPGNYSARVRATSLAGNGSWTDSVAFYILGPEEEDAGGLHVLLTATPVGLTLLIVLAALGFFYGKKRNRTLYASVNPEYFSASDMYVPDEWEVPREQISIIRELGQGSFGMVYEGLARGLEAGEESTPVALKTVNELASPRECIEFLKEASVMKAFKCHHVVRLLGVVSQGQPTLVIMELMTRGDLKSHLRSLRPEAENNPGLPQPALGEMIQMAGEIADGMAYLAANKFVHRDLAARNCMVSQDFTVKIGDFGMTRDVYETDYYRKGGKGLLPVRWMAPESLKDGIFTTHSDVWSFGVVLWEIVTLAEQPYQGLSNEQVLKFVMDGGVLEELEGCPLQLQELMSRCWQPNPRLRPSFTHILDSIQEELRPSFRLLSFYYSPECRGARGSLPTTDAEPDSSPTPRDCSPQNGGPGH
smiles,measurement,setting,value
"COCCN1C[C@@H](NC(=O)Nc2c(-c3ccccc3)nc3c(C)nccn23)[C@H](c2ccc(F)c(F)c2)C1 [Example 20, 1-((3S,4R)-4-(3,4-difluorophenyl)-1-(2-methoxyethyl)pyrrolidin-3-yl)-3-(8-methyl-2-phenylimidazo[1,2-a]pyrazin-3-yl)urea]",Avg. POC,MKK6,83 POC
same,Avg. POC,FGFR1,102 POC
same,Avg. POC,PRKG1alpha,111.5 POC
same,Avg. POC,ERK1,115 POC
same,Avg. POC,CDK9/cyclinT1,109.5 POC
same,Avg. POC,IGF-1R Activated,100 POC
same,Avg. POC,DMPK,105.5 POC
same,Avg. POC,BrSK2,116 POC
same,Avg. POC,MST2,107.5 POC
same,Avg. POC,Rsk2,110.5 POC
same,Avg. POC,CK1_y,104 POC
same,Avg. POC,p38beta,98.5 POC
same,Avg. POC,Pyk2,98.5 POC
same,Avg. POC,FGFR3,101 POC
same,Avg. POC,NEK6,92.5 POC
same,Avg. POC,SGK1,119 POC
same,Avg. POC,DAPK1,103 POC
same,Avg. POC,p38delta,105 POC
same,Avg. POC,TNK2,94.5 POC
same,Avg. POC,IR Activated,108 POC
same,Avg. POC,MAPKAP-K3,105 POC
same,Avg. POC,ULK3,108 POC
same,Avg. POC,STK33,109.5 POC
same,Avg. POC,Plk2,106 POC
same,Avg. POC,DYRK2,85.5 POC
same,Avg. POC,Rsk3,107.5 POC
same,Avg. POC,CAMK1d,107.5 POC
same,Avg. POC,RIPK2,97.5 POC
same,Avg. POC,Bmx,103.5 POC
same,Avg. POC,CLK2,106.5 POC
same,Avg. POC,PTK5,111 POC
same,Avg. POC,PKCgamma,111 POC
same,Avg. POC,ROCK-I,95.5 POC
same,Avg. POC,Lyn,104.5 POC
same,Avg. POC,PDGFRbeta,114 POC
same,Avg. POC,TAK1,97 POC
same,Avg. POC,CAMK2g,113 POC
same,Avg. POC,FGFR2,106 POC
same,Avg. POC,ALK4,98.5 POC
same,Avg. POC,Flt4,110.5 POC
same,Avg. POC,IRR,96 POC
